Here are results for 17 molecules from US20240150377A1, “MODULATORS OF CYSTIC FIBROSIS TRANSMEMBRANE CONDUCTANCE REGULATOR” (VERTEX PHARMACEUTICALS INCORPORATED, priority 2020, published 2024).

In the assay the target is CFTR (Homo sapiens, UniProt P13569). Put plainly: Membrane potential dye, Enteroid Assay A. In kind it is cell-based. The settings on record: for Ent. A Max Activity: chloride transport as % of triple combination control (Enteroid Assay A); for EC50: human enteroid cells, 18-24 hours, acute 10 μM forskolin and 300 nM ivacaftor, read-out: Ent. A EC50. The procedure:
Base medium (ADF+++) consisted of Advanced DMEM/Ham's F12, 2 mM Glutamax, 10 mM HEPES, […] penicillin/streptomycin.
Intestinal enteroid maintenance medium (IEMM) consisted of ADF+++, 1× B27 supplement, 1× N2 supplement, 1.25 mM N-acetyl cysteine, 10 mM Nicotinamide, 50 ng/mL hEGF, 10 nM Gastrin, 1 μg/mL hR-spondin-1, 100 ng/mL hNoggin, TGF-b type 1 inhibitor A-83-01, 100 μg/mL Primocin, 10 μM P38 MAPK inhibitor SB202190.
Bath 1 Buffer consisted of 1 mM MgCl2, 160 mM NaCl, 4.5 mM KCl, 10 mM HEPES, 10 mM Glucose, 2 mM CaCl2).
Chloride Free Buffer consisted of 1 mM Magnesium Gluconate, 2 mM Calcium Gluconate, 4.5 mM Potassium Gluconate, 160 mM Sodium Gluconate, 10 mM HEPES, 10 mM Glucose.
BathI Dye Solution consisted of Bath 1 Buffer, 0.04% Pluronic F127, 20 μM Methyl Oxonol, 30 μM CaCCinh-A01, 30 μM Chicago Sky Blue.
Chloride Free Dye Solution consisted of Chloride Free Buffer, 0.04% Pluronic F127, 20 μM Methyl Oxonol, 30 μM CaCCinh-A01, 30 μM Chicago Sky Blue.
Chloride Free Dye Stimulation Solution consisted of Chloride Free Dye Solution, 10 μM forskolin, 100 μM IBMX, and 300 nM Compound III.
Human intestinal epithelial enteroid cells were obtained from the Hubrecht Institute for Developmental Biology and Stem Cell Research, Utrecht, The Netherlands and expanded in T-Flasks as previously described (Dekkers J F, Wiegerinck C L, de Jonge H R, Bronsveld I, Janssens H M, de Winter-de Groot K M, Brandsma A M, de Jong N W M, Bijvelds M J C, Scholte B J, Nieuwenhuis E E S, van den Brink S, Clevers H, van der Ent C K, Middendorp S and M Beekman J M. A functional CFTR assay using primary cystic fibrosis intestinal organoids. Nat Med. 2013 July;19(7):939-45.).
3. Enteroid Cell Harvesting and Seeding
Cells were recovered in cell recovery solution, collected by centrifugation at 650 rpm for 5 min at 4° C., resuspended in TrypLE and incubated for 5 min at 37° C. Cells were then collected by centrifugation at 650 rpm for 5 min at 4° C. and resuspended in IEMM containing 10 μM ROCK inhibitor (RI). The cell suspension was passed through a 40 μm cell strainer and resuspended at 1×10^6 cells/mL in IEMM containing 10 μM RI. Cells were seeded at 5000 cells/well into multi-well plates and incubated for overnight at 37° C., 95% humidity and 5% CO2 prior to assay.
4. Membrane Potential Dye, Enteroid Assay A
Enteroid cells were incubated with test compound in IEMM for 18-24 hours at 37° C., 95% humidity and 5% CO2. […] Briefly, cells were washed 5 times in Bath 1 Buffer. Bath 1 Dye Solution was added, and the cells were incubated for 25 min at room temperature. Following dye incubation, cells were washed 3 times in Chloride Free Dye Solution. Chloride transport was initiated by addition of Chloride Free Dye Stimulation Solution and the fluorescence signal was read for 15 min. […] Chloride transport was then expressed as a percentage of the chloride transport following treatment with 3 μM N-[(6-amino-2-pyridyl)sulfonyl]-6-(3-fluoro-5-isobutoxy-phenyl)-2-[(4S)-2,2,4-trimethylpyrrolidin-1-yl]pyridine-3-carboxamide, 3 μM (R)-1-(2,2-difluorobenzo[d][1,3]dioxol-5-yl)-N-(1-(2,3-dihydroxypropyl)-6-fluoro-2-(1-hydroxy-2-methylpropan-2-yl)-1H-indol-5-yl)cyclopropanecarboxamide and 300 nM acute N-[2,4-bis(1,1-dimethylethyl)-5-hydroxyphenyl]-1,4-dihydro-4-oxoquinoline-3-carboxamide triple combination control (% Activity).

Where two headings read alike, the source gives them in different places.

Chain of CFTR (P13569 with tags, fused parts or gaps DEL508-508): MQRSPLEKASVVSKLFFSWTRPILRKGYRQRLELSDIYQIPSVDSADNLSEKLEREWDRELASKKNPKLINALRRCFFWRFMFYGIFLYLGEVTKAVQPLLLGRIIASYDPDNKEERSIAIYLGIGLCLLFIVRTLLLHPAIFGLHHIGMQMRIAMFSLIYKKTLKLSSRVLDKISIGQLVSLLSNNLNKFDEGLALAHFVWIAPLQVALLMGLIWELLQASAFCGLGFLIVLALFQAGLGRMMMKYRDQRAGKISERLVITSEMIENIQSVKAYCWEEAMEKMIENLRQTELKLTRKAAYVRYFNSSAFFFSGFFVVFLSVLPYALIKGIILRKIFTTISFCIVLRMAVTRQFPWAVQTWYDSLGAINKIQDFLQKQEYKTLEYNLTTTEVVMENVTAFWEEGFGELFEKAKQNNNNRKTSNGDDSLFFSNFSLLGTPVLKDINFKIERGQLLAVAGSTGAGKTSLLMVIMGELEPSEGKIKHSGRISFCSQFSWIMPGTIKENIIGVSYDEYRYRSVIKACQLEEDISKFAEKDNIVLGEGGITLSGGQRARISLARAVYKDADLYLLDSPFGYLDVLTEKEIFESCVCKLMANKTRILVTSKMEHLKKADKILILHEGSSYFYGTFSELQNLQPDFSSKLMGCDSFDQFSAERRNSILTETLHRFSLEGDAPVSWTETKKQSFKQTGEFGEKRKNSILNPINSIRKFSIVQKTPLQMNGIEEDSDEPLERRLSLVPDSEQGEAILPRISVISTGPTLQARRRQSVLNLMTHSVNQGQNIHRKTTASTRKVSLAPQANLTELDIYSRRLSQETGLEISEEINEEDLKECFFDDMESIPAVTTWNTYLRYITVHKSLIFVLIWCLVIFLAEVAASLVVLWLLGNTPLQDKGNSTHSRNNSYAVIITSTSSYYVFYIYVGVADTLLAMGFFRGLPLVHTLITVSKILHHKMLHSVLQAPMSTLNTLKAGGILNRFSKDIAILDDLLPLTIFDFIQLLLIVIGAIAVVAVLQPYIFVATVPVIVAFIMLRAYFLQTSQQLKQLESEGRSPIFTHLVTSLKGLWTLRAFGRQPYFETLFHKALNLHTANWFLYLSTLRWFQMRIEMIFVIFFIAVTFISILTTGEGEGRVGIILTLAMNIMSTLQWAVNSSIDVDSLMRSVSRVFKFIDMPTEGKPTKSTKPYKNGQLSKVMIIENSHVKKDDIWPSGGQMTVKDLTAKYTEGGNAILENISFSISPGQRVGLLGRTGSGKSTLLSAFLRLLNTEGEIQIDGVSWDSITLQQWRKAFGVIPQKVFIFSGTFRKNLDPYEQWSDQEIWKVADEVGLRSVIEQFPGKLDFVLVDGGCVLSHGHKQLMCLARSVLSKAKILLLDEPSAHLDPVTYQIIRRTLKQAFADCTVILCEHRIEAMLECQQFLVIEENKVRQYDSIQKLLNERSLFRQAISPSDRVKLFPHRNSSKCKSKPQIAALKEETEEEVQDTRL

For the molecule `Cc1cccc(C)c1-c1cc2nc(n1)NS(=O)(=O)c1cccc(c1)C(=O)N(CC1CC3C=C[C@@H]1C3)[C@H](CC(C)C)CO2` (stereo partly shown) [Compound 351], under “Table 6”, the “Ent. A Max Activity” value is listed as “+++ (+++ is >60%)” and the EC50 (in general, the concentration that produces a half-maximal response) was less than 1 µM.

Consider `Cc1cccc(C)c1-c1cc2nc(n1)NS(=O)(=O)c1cccc(c1)C(=O)N(CC1CCOCC1)[C@H](CC(C)C)CO2` [Compound 352], for which, where the note is “Table 6”, the “Ent. A Max Activity” value is listed as “+++ (+++ is >60%)” and the EC50 was less than 1 µM.

As to `Cc1cccc(C)c1-c1cc2nc(n1)NS(=O)(=O)c1cccc(c1)C(=O)N(CCCn1cccn1)[C@H](CC(C)C)CO2` [Compound 354], for the setting “Table 6”, the “Ent. A Max Activity” value is recorded as “+++ (+++ is >60%)” and the EC50 was less than 1 µM.

Regarding `Cc1cccc(C)c1-c1cc2nc(n1)NS(=O)(=O)c1cccc(c1)C(=O)N(CCc1ccccc1)[C@H](CC(C)C)CO2` [Compound 355], under “Table 6”, the “Ent. A Max Activity” value is on record as “+++ (+++ is >60%)” and the EC50 is less than 1 µM.

`Cc1ccccc1CN1C(=O)c2cccc(c2)S(=O)(=O)Nc2nc(cc(-c3c(C)cccc3C)n2)OC[C@H]1CC(C)C` [Compound 356]: where the note is “Table 6”, the “Ent. A Max Activity” value is recorded as “+++ (+++ is >60%)” and the EC50 was less than 1 µM.

As for `Cc1cccc(C)c1-c1cc2nc(n1)NS(=O)(=O)c1cccc(c1)C(=O)N(CC1CCOC1)[C@H](CC(C)C)CO2` (stereo partly shown) [Compound 357], under “Table 6”, the “Ent. A Max Activity” value is recorded as “+++ (+++ is >60%)” and the EC50 is less than 1 µM.

On to `Cc1cccc(C)c1-c1cc2nc(n1)NS(=O)(=O)c1cccc(c1)C(=O)N(CCC1CCCCC1)[C@H](CC(C)C)CO2` [Compound 358], for which, under “Table 6”, the “Ent. A Max Activity” value is listed as “+++ (+++ is >60%)” and the EC50 was less than 1 µM.

`Cc1cccc(C)c1-c1cc2nc(n1)NS(=O)(=O)c1cccc(c1)C(=O)N(CCCC(=O)O)[C@H](CC(C)C)CO2` [Compound 359]: for the setting “Table 6”, the “Ent. A Max Activity” value is “++ (++ is 30-60%)” and the EC50 lay within 3 to 30 µM.

Consider `Cc1cccc(C)c1-c1cc2nc(n1)NS(=O)(=O)c1cccc(c1)C(=O)N(CC1CCN(C)CC1)[C@H](CC(C)C)CO2` [Compound 360], for which, under “Table 6”, the “Ent. A Max Activity” value is “+++ (+++ is >60%)” and the EC50 was in the range of 1 to 3 µM.

For the molecule `Cc1cccc(C)c1-c1cc2nc(n1)NS(=O)(=O)c1cccc(c1)C(=O)N(Cc1cccnc1)[C@H](CC(C)C)CO2` [Compound 364], for the setting “Table 6”, the “Ent. A Max Activity” value is on record as “+++ (+++ is >60%)” and the EC50 was less than 1 µM.

`Cc1cccc(C)c1-c1cc2nc(n1)NS(=O)(=O)c1cccc(c1)C(=O)N(Cc1cncn1C)[C@H](CC(C)C)CO2` [Compound 365]: under “Table 6”, the “Ent. A Max Activity” value is “+++ (+++ is >60%)” and the 50% effective concentration (EC50) is 1 to 3 µM.

Consider `Cc1cccc(C)c1-c1cc2nc(n1)NS(=O)(=O)c1cccc(c1)C(=O)N(CC1CC1)[C@H](CC(C)C)CO2` [Compound 366], for which, under “Table 6”, the “Ent. A Max Activity” value is given as “+++ (+++ is >60%)” and the concentration giving a half-maximal response (EC50) was less than 1 µM.

In the case of `COC(=O)CCCN1C(=O)c2cccc(c2)S(=O)(=O)Nc2nc(cc(-c3c(C)cccc3C)n2)OC[C@H]1CC(C)C` [Compound 367], for the setting “Table 6”, the “Ent. A Max Activity” value was “+++ (+++ is >60%)” and the EC50 is less than 1 µM.

Turning to `Cc1cccc(C)c1-c1cc2nc(n1)NS(=O)(=O)c1cccc(c1)C(=O)N(Cc1cnc3ccccn13)[C@H](CC(C)C)CO2` [Compound 368], under “Table 6”, the “Ent. A Max Activity” value was “+++ (+++ is >60%)” and the EC50 is less than 1 µM.

In the case of `Cc1cccc(C)c1-c1cc2nc(n1)NS(=O)(=O)c1cccc(c1)C(=O)N(CCC(C)C)[C@H](CC(C)C)CO2` [Compound 369], where the note is “Table 6”, the “Ent. A Max Activity” value is listed as “+++ (+++ is >60%)” and the EC50 was less than 1 µM.

With `Cc1cccc(C)c1-c1cc2nc(n1)NS(=O)(=O)c1cccc(c1)C(=O)N(CCC(C1CC1)C1CC1)[C@H](CC(C)C)CO2` [Compound 413], for the setting “Table 7”, the “Ent. A Max Activity” value is “+++ (+++ is >60%)” and the EC50 was less than 1 µM.

On to `Cc1cccc(C)c1-c1cc2nc(n1)NS(=O)(=O)c1cccc(c1)C(=O)N(CC1CC3(CCN(C(C)C)CC3)C1)[C@H](CC(C)C)CO2` [Compound 415], for which, where the note is “Table 7”, the “Ent. A Max Activity” value is recorded as “+++ (+++ is >60%)” and the EC50 is less than 1 µM.
